Where “and” joins values, the source holds several entries; their conditions need not be identical. Identical values can stand only once. Inconclusive results and toxic doses are left out. Rule for the calls: active = survival T/C of 150% or more; inactive = T/C below 125% in these data.
Test system: P388 leukemia ip, CD2F1 mice, survival T/C
Experiment: NCI In Vivo Anticancer Drug Screen. Data for tumor model P388 Leukemia (intraperitoneal) in CD2F1 (CDF1) mice
Details: endpoint: median survival time, higher = longer survival
Outline: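 Mice carrying the transplanted tumor received test compound or vehicle. Survival was recorded in each group, and the value is the treated-group measurement divided by that of the vehicle-treated control group.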

[1] = dose: 100.0 mg/kg/injection, schedule: Q04DX002 (ip), vehicle: saline with Tween-80
[2] = dose: 200.0 mg/kg/injection, schedule: Q04DX002 (ip), vehicle: saline with Tween-80
[3] = dose: 6.25 mg/kg/injection, schedule: Q01DX009 (ip), vehicle: saline with Tween-80
[4] = dose: 12.5 mg/kg/injection, schedule: Q01DX009 (ip), vehicle: saline with Tween-80
[5] = dose: 50.0 mg/kg/injection, schedule: Q01DX009 (ip), vehicle: saline with Tween-80
[6] = dose: 100.0 mg/kg/injection, schedule: Q01DX009 (ip), vehicle: saline with Tween-80
[7] = dose: 200.0 mg/kg/injection, schedule: Q01DX009 (ip), vehicle: saline with Tween-80
[8] = dose: 400.0 mg/kg/injection, schedule: Q04DX002 (ip), vehicle: saline with Tween-80

Measured: T/C

C=C1C(=O)OC2CC1C(OC(C)=O)C/C(C)=C/CC/C(C)=C\CCC2(C)O (centres undefined)
inactive: dose: 5.0 mg/kg/injection, schedule: Q01DX009 (ip), vehicle: Klucel (hydroxypropylcellulose) (HPC) 107 % of control | dose: 8.0 mg/kg/injection, schedule: Q01DX009 (ip), vehicle: Klucel (hydroxypropylcellulose) (HPC) 103 % of control | dose: 10.0 mg/kg/injection, schedule: Q01DX009 (ip), vehicle: Klucel (hydroxypropylcellulose) (HPC) 109 % of control | dose: 16.0 mg/kg/injection, schedule: Q01DX009 (ip), vehicle: Klucel (hydroxypropylcellulose) (HPC) 95 % of control | dose: 20.0 mg/kg/injection, schedule: Q01DX009 (ip), vehicle: Klucel (hydroxypropylcellulose) (HPC) 116 % of control | dose: 25.0 mg/kg/injection, schedule: Q04DX002 (ip), vehicle: saline 100 % of control | dose: 32.0 mg/kg/injection, schedule: Q01DX009 (ip), vehicle: Klucel (hydroxypropylcellulose) (HPC) 106 % of control | dose: 40.0 mg/kg/injection, schedule: Q01DX009 (ip), vehicle: Klucel (hydroxypropylcellulose) (HPC) 117 % of control | dose: 50.0 mg/kg/injection, schedule: Q04DX002 (ip), vehicle: saline 94 % of control | dose: 64.0 mg/kg/injection, schedule: Q01DX009 (ip), vehicle: Klucel (hydroxypropylcellulose) (HPC) 106 % of control | dose: 100.0 mg/kg/injection, schedule: Q04DX002 (ip), vehicle: saline 103 % of control | dose: 200.0 mg/kg/injection, schedule: Q04DX002 (ip), vehicle: saline 103 % of control

COc1ccc2c([O-])c3[n+](cc2c1OC)CCc1cc2c(cc1-3)OCO2
inactive: dose: 50.0 mg/kg/injection, schedule: Q04DX002 (ip), vehicle: saline with Tween-80 103 % of control | [1] 106 % of control | [2] 102 % of control

O=[N+]([O-])c1cc([N+](=O)[O-])c(Cl)s1
inactive: [3] 104 % of control | [4] 100 % of control

Cc1nnc(NN=O)nc1C
inactive: dose: 3.12 mg/kg/injection, schedule: Q01DX009 (ip), vehicle: water 96 % of control | dose: 6.25 mg/kg/injection, schedule: Q01DX009 (ip), vehicle: water 100 % of control | dose: 12.5 mg/kg/injection, schedule: Q01DX009 (ip), vehicle: water 105 % of control and 98 % of control | dose: 25.0 mg/kg/injection, schedule: Q01DX009 (ip), vehicle: water 104 % of control and 106 % of control | dose: 50.0 mg/kg/injection, schedule: Q01DX009 (ip), vehicle: water 99 % of control and 101 % of control and 105 % of control | dose: 100.0 mg/kg/injection, schedule: Q01DX009 (ip), vehicle: water 96 % of control

NC(=O)c1cnc(N)nc1
inactive: [3] 93 % of control | [4] 91 % of control | dose: 25.0 mg/kg/injection, schedule: Q01DX009 (ip), vehicle: saline with Tween-80 98 % of control | [5] 94 % of control | [6] 98 % of control | [7] 106 % of control

O=S1(=O)C=C(Cl)C2C3CC(C(Cl)C3Cl)C21 (centres undefined)
inactive: dose: 15.0 mg/kg/injection, schedule: Q04DX003 (ip), vehicle: saline 100 % of control | dose: 30.0 mg/kg/injection, schedule: Q04DX003 (ip), vehicle: saline 91 % of control

O=C1CS(=O)(=O)C(c2ccccn2)N1CCN1C(=O)CS(=O)(=O)C1c1ccccn1 (centres undefined)
inactive: dose: 100.0 mg/kg/injection, schedule: Q01DX001 (ip), vehicle: saline with Tween-80 100 % of control and 101 % of control | [1] 90 % of control | dose: 200.0 mg/kg/injection, schedule: Q01DX001 (ip), vehicle: saline with Tween-80 92 % of control and 97 % of control | [2] 98 % of control | dose: 400.0 mg/kg/injection, schedule: Q01DX001 (ip), vehicle: saline with Tween-80 89 % of control and 101 % of control | [8] 91 % of control

O=C1c2c3c(c4c(c2C(=O)c2c5c(c6c(c21)CCCC6)CCCC5)CCCC4)CCCC3
inactive: dose: 7.5 mg/kg/injection, schedule: Q01DX009 (ip), vehicle: saline with Tween-80 99 % of control | dose: 15.0 mg/kg/injection, schedule: Q01DX009 (ip), vehicle: saline with Tween-80 98 % of control | dose: 30.0 mg/kg/injection, schedule: Q01DX009 (ip), vehicle: saline with Tween-80 103 % of control

O=c1cc(-c2ccc(Cl)cc2)c(-c2ccc(Cl)cc2)nn1CCO
inactive: [1] 95 % of control | [2] 95 % of control | [8] 89 % of control

CCN(CC)C(=O)c1c(Cl)c(Cl)c(Cl)c(Cl)c1C(=O)O
inactive: [5] 112 % of control | [6] 96 % of control | [7] 96 % of control | dose: 400.0 mg/kg/injection, schedule: Q01DX009 (ip), vehicle: saline with Tween-80 102 % of control

C=CC(=NC(C)(C)C)N(CC)CC
inactive: dose: 15.0 mg/kg/injection, schedule: Q01DX005 (ip), vehicle: saline with Tween-80 103 % of control | dose: 30.0 mg/kg/injection, schedule: Q01DX005 (ip), vehicle: saline with Tween-80 105 % of control | dose: 60.0 mg/kg/injection, schedule: Q01DX005 (ip), vehicle: saline with Tween-80 100 % of control and 106 % of control

Nc1ccncc1C(=O)O
inactive: [5] 99 % of control | [6] 99 % of control | [7] 96 % of control

C#CCN1CC(OC)Nc2c(O)cccc2C1=O (centres undefined) (tested in a mixture with another compound)
inactive: dose: 2.5 mg/kg/injection, schedule: Q01DX005 (ip), vehicle: water 113 % of control | dose: 5.0 mg/kg/injection, schedule: Q01DX005 (ip), vehicle: water 110 % of control and 113 % of control | dose: 10.0 mg/kg/injection, schedule: Q01DX005 (ip), vehicle: water 123 % of control | dose: 20.0 mg/kg/injection, schedule: Q01DX005 (ip), vehicle: water 119 % of control and 123 % of control

O=NN(C(=O)NC1CCOCC1)C1CCOCC1
inactive: dose: 25.0 mg/kg/injection, schedule: Q01DX001 (ip), vehicle: distilled water + Tween-80 101 % of control | dose: 50.0 mg/kg/injection, schedule: Q01DX001 (ip), vehicle: distilled water + Tween-80 101 % of control | dose: 100.0 mg/kg/injection, schedule: Q01DX001 (ip), vehicle: distilled water + Tween-80 102 % of control | dose: 200.0 mg/kg/injection, schedule: Q01DX001 (ip), vehicle: distilled water + Tween-80 105 % of control | dose: 400.0 mg/kg/injection, schedule: Q01DX001 (ip), vehicle: distilled water + Tween-80 102 % of control

Nc1c(-c2nc3ccc(C4=NCCN4)cc3[nH]2)[nH]c2cc(-c3nc4ccc(C5=NCCN5)cc4[nH]3)ccc12
inactive: dose: 50.0 mg/kg/injection, schedule: Q01DX005 (ip), vehicle: Klucel (hydroxypropylcellulose) (HPC) 90 % of control | dose: 100.0 mg/kg/injection, schedule: Q01DX005 (ip), vehicle: Klucel (hydroxypropylcellulose) (HPC) 90 % of control

COc1ccc2c(c1OC)C[N+]1(C)CCc3cc4c(cc3C1=C2C)OCO4 (centres undefined)
inactive: dose: 1.56 mg/kg/injection, schedule: Q01DX005 (ip), vehicle: Klucel (hydroxypropylcellulose) (HPC) 99 % of control | dose: 3.12 mg/kg/injection, schedule: Q01DX005 (ip), vehicle: Klucel (hydroxypropylcellulose) (HPC) 99 % of control | dose: 6.25 mg/kg/injection, schedule: Q01DX005 (ip), vehicle: Klucel (hydroxypropylcellulose) (HPC) 103 % of control and 113 % of control

CC1(C)CC(C)(OC(=O)c2ccc([N+](=O)[O-])cc2)N=N1 (centres undefined)
inactive: dose: 12.5 mg/kg/injection, schedule: Q01DX009 (ip), vehicle: other 102 % of control | dose: 25.0 mg/kg/injection, schedule: Q01DX009 (ip), vehicle: other 97 % of control | dose: 50.0 mg/kg/injection, schedule: Q01DX009 (ip), vehicle: other 102 % of control | dose: 100.0 mg/kg/injection, schedule: Q01DX009 (ip), vehicle: other 100 % of control | dose: 200.0 mg/kg/injection, schedule: Q01DX009 (ip), vehicle: other 101 % of control

[Ni+2].[S-]CC[S-]
inactive: dose: 100.0 mg/kg/injection, schedule: Q04DX003 (ip), vehicle: saline with Tween-80 92 % of control | dose: 200.0 mg/kg/injection, schedule: Q04DX003 (ip), vehicle: saline with Tween-80 108 % of control

Reference: PubChem BioAssay AID330 (DTP/NCI, 2004)
